Results as given in ChEMBL document CHEMBL1909590, “Design, synthesis and docking studies of new quinoline-3-carbohydrazide derivatives as antitubercular agents” (2011).
Values after ≈ are worked out from the molar mass of the structure shown.

What was measured:
Assay type in all cases: functional
Pseudomonas aeruginosa = experiment: Antibacterial activity against Pseudomonas aeruginosa ATCC 27853 after 18 to 25 hrs by serial plate dilution method
Staphylococcus aureus = experiment: Antibacterial activity against Staphylococcus aureus ATCC 25923 after 18 to 25 hrs by serial plate dilution method
Streptococcus pyogenes = experiment: Antibacterial activity against Streptococcus pyogenes clinical isolate after 18 to 25 hrs by serial plate dilution method
[1] = tested on: Mycobacterium tuberculosis; experiment: Antimycobacterial activity against Mycobacterium tuberculosis H37Rv ATCC 27294 using compound level ranging from 0.3125 to 5 ug/mL after 7 days by resazurin reduction test; conditions: H37Rv ATCC 27294, 168 h
[2] = tested on: Mycolicibacterium smegmatis; experiment: Antimycobacterial activity against Mycobacterium smegmatis MC2 ATCC 19420 using compound level ranging from 1 to 100 ug/mL after 7 days by resazurin reduction test; conditions: MC2 ATCC 19420, 168 h
[3] = tested on: Mycobacterium tuberculosis; experiment: Growth inhibition of Mycobacterium tuberculosis H37Rv ATCC 27294 using compound level ranging from 1 to 100 ug/mL after 7 days by resazurin reduction test
Klebsiella pneumoniae = experiment: Antibacterial activity against Klebsiella pneumoniae clinical isolates after 18 to 25 hrs by serial plate dilution method
[4] = tested on: Mycolicibacterium fortuitum; experiment: Antimycobacterial activity against Mycobacterium fortuitum ATCC 19542 using compound level ranging from 1 to 100 ug/mL after 7 days by resazurin reduction test; conditions: ATCC 19542, 168 h
[5] = tested on: Mycobacterium tuberculosis; experiment: Antimycobacterial activity against Mycobacterium tuberculosis H37Rv ATCC 27294 using compound level ranging from 1 to 100 ug/mL after 7 days by resazurin reduction test; conditions: H37Rv ATCC 27294, 168 h
Escherichia coli = experiment: Antibacterial activity against Escherichia coli ATCC 25922 after 18 to 25 hrs by serial plate dilution method

Row | SMILES | MIC (Pseudomonas aeruginosa) | MIC (Staphylococcus aureus) | MIC (Streptococcus pyogenes) | MIC [1] | MIC [2] | growth inhibition (GI) [3] | MIC (Klebsiella pneumoniae) | MIC [4] | MIC [5] | MIC (Escherichia coli)
1 | O=C(O)c1cn(C2CC2)c2cc(N3CCNCC3)c(F)cc2c1=O [CIPROFLOXACIN] | 0.4 µg/mL (≈ 1.21 µM) | 1 µg/mL (≈ 3.02 µM) | – | – | – | – | – | – | – | –
2 | COc1ccc(NC(=S)NNC(=O)c2cnc3c(C(F)(F)F)cccc3c2O)cc1 | 1.6 µg/mL (≈ 3.67 µM) | 1.6 µg/mL (≈ 3.67 µM) | 0.8 µg/mL (≈ 1.83 µM) | 5 µg/mL (≈ 11.5 µM) | > 100 µg/mL | <90% | 3.12 µg/mL (≈ 7.15 µM) | > 100 µg/mL | 10 µg/mL (≈ 22.9 µM) | 6.25 µg/mL (≈ 14.3 µM)
3 | CSc1ccccc1/C=N/NC(=O)c1cnc2c(C(F)(F)F)cccc2c1O | 3.12 µg/mL (≈ 7.7 µM) | 1.6 µg/mL (≈ 3.95 µM) | 3.12 µg/mL (≈ 7.7 µM) | – | > 100 µg/mL | 0% | 3.12 µg/mL (≈ 7.7 µM) | > 100 µg/mL | > 100 µg/mL | 6.25 µg/mL (≈ 15.4 µM)
4 | Cc1ccc(NC(=S)NNC(=O)c2cnc3c(C(F)(F)F)cccc3c2O)cc1 | 6.25 µg/mL (≈ 14.9 µM) | 1.6 µg/mL (≈ 3.81 µM) | 3.12 µg/mL (≈ 7.42 µM) | – | > 100 µg/mL | 0% | 12.5 µg/mL (≈ 29.7 µM) | > 100 µg/mL | > 100 µg/mL | 12.5 µg/mL (≈ 29.7 µM)
5 | O=C(NNC(=S)Nc1cccnc1)c1cnc2c(C(F)(F)F)cccc2c1O | 12.5 µg/mL (≈ 30.7 µM) | 6.25 µg/mL (≈ 15.3 µM) | 12.5 µg/mL (≈ 30.7 µM) | – | > 100 µg/mL | 0% | 6.25 µg/mL (≈ 15.3 µM) | > 100 µg/mL | > 100 µg/mL | 3.12 µg/mL (≈ 7.66 µM)
6 | O=C(N/N=C/c1ccncc1)c1cnc2c(C(F)(F)F)cccc2c1O | 12.5 µg/mL (≈ 34.7 µM) | 6.25 µg/mL (≈ 17.3 µM) | 12.5 µg/mL (≈ 34.7 µM) | – | > 100 µg/mL | 0% | 6.25 µg/mL (≈ 17.3 µM) | > 100 µg/mL | > 100 µg/mL | 12.5 µg/mL (≈ 34.7 µM)
7 | O=C(NNC(=O)c1cnc2c(C(F)(F)F)cccc2c1O)Nc1cccc(Cl)c1 | 1.6 µg/mL (≈ 3.77 µM) | 0.8 µg/mL (≈ 1.88 µM) | 0.4 µg/mL (≈ 0.942 µM) | 10 µg/mL (≈ 23.5 µM) | > 100 µg/mL | <90% | 0.8 µg/mL (≈ 1.88 µM) | > 100 µg/mL | 10 µg/mL (≈ 23.5 µM) | 3.12 µg/mL (≈ 7.35 µM)
8 | Cc1ccc(/C=N/NC(=O)c2cnc3c(C(F)(F)F)cccc3c2O)cc1 | 3.12 µg/mL (≈ 8.36 µM) | 1.6 µg/mL (≈ 4.29 µM) | 3.12 µg/mL (≈ 8.36 µM) | 10 µg/mL (≈ 26.8 µM) | > 100 µg/mL | <90% | 0.8 µg/mL (≈ 2.14 µM) | > 100 µg/mL | 10 µg/mL (≈ 26.8 µM) | 3.12 µg/mL (≈ 8.36 µM)
9 | Cc1cc(C)cc(NC(=O)NNC(=O)c2cnc3c(C(F)(F)F)cccc3c2O)c1 | 3.12 µg/mL (≈ 7.46 µM) | 0.8 µg/mL (≈ 1.91 µM) | 1.6 µg/mL (≈ 3.82 µM) | 2.5 µg/mL (≈ 5.98 µM) | > 100 µg/mL | <90% | 3.12 µg/mL (≈ 7.46 µM) | > 100 µg/mL | 10 µg/mL (≈ 23.9 µM) | 3.12 µg/mL (≈ 7.46 µM)
10 | CCc1ccc(NC(=O)NNC(=O)c2cnc3c(C(F)(F)F)cccc3c2O)cc1 | 12.5 µg/mL (≈ 29.9 µM) | 6.25 µg/mL (≈ 14.9 µM) | 12.5 µg/mL (≈ 29.9 µM) | 12.5 µg/mL (≈ 29.9 µM) | > 100 µg/mL | <90% | 6.25 µg/mL (≈ 14.9 µM) | > 100 µg/mL | 10 µg/mL (≈ 23.9 µM) | 3.12 µg/mL (≈ 7.46 µM)
11 | COC(=O)Cc1cc(/C=N/NC(=O)c2cnc3c(C(F)(F)F)cccc3c2O)co1 | 12.5 µg/mL (≈ 29.7 µM) | 6.25 µg/mL (≈ 14.8 µM) | 12.5 µg/mL (≈ 29.7 µM) | 5 µg/mL (≈ 11.9 µM) | > 100 µg/mL | <90% | 6.25 µg/mL (≈ 14.8 µM) | > 100 µg/mL | 10 µg/mL (≈ 23.7 µM) | 3.12 µg/mL (≈ 7.41 µM)
12 | COc1ccc(/C=N/NC(=O)c2cnc3c(C(F)(F)F)cccc3c2O)cc1O | 6.25 µg/mL (≈ 15.4 µM) | 1.6 µg/mL (≈ 3.95 µM) | 1.6 µg/mL (≈ 3.95 µM) | 10 µg/mL (≈ 24.7 µM) | > 100 µg/mL | <90% | 12.5 µg/mL (≈ 30.8 µM) | > 100 µg/mL | 10 µg/mL (≈ 24.7 µM) | 12.5 µg/mL (≈ 30.8 µM)
13 | O=C(N/N=C/c1ccc2c(c1)CCO2)c1cnc2c(C(F)(F)F)cccc2c1O | 3.12 µg/mL (≈ 7.77 µM) | 1.6 µg/mL (≈ 3.99 µM) | 3.12 µg/mL (≈ 7.77 µM) | – | > 100 µg/mL | 0% | 6.25 µg/mL (≈ 15.6 µM) | > 100 µg/mL | > 100 µg/mL | 12.5 µg/mL (≈ 31.1 µM)
